Experimental data published in PubChem BioAssay (NCI).
Several values for one entry are separate records, joined by “and”; a condition that tells them apart may be missing. Identical values can stand only once.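 Values below derive from 48-hour exposures of cells grown in 96-well plates, with endpoints linearly interpolated between the two concentrations bracketing the appropriate inhibition level. Abbreviation: GI50, concentration required for 50% inhibition of growth. TGI marks complete inhibition of growth.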

Columns and labels:
Experiment in all cases: DTP human tumour cell line panel, 48 h
[1] = test system: IGROV1 ovarian
[2] = test system: UACC-257 melanoma
[3] = test system: A549 NSCLC
[4] = test system: KM12 colon
[5] = test system: UO-31 renal
[6] = test system: EKVX NSCLC
[7] = test system: RPMI-8226 leukemia
[8] = test system: MOLT-4 leukemia
[9] = test system: M14 melanoma
[10] = test system: NCI/ADR-RES ovarian

Structure (SMILES)	TGI [1]	TGI [2]	TGI [3]	TGI [4]	TGI [5]	TGI [6]	TGI [7]	TGI [8]	TGI [9]	GI50 [1]	GI50 [2]	GI50 [3]	GI50 [4]	GI50 [5]	GI50 [6]	GI50 [10]	TGI [10]	GI50 [9]	GI50 [7]	GI50 [8]
O=C1NCCS(=O)(=O)N2CCC[C@@H]12	> 100 µM	> 100 µM	> 100 µM	> 100 µM	> 100 µM	> 100 µM	> 100 µM	> 100 µM	> 100 µM											
O=c1ccc2nc(-c3ccccn3)nn(-c3ccccc3)c-2c1	6.65 µM	3.93 µM	42.3 µM	28.9 µM	2.82 µM	20 µM			13.6 µM	2630 nM	1920 nM	18.4 µM	14.5 µM	1460 nM	6.25 µM	6.91 µM	65.3 µM	3.39 µM		
O=C(CSc1nc2ccccc2c(=O)n1-c1ccccc1)N=Nc1c(O)[nH]c2ccc(F)cc12		6 µM	21.6 µM	32.6 µM	3.73 µM	5.57 µM	4.65 µM	3.43 µM	4.57 µM								5.48 µM			
CN(Cc1cc(Cl)c(Cl)cc1NC(=O)CN)[C@H]1CCCC[C@@H]1N1CCCC1	> 100 µM	31.7 µM	> 100 µM	> 100 µM	> 100 µM	> 100 µM		> 100 µM	33.2 µM								> 100 µM			
Cc1ccc(-n2cc([Si](C)(C)C)nn2)s1		> 100 µM	> 100 µM		> 100 µM		> 100 µM		> 100 µM								> 100 µM			
CCOc1ccc2c(c1)c(=O)c1c(NCCN(CC)CC)ccc3nnn2c31	30.3 µM	> 59.6 µM	> 55.5 µM	37.1 µM		> 100 µM	> 65.1 µM	> 59.9 µM	> 54.8 µM								> 54.2 µM			
CC1=NN(c2nc(N)nc(CF)n2)C(C)(C)C1	> 100 µM	> 100 µM		> 100 µM	> 100 µM	> 100 µM	> 100 µM	> 100 µM	> 100 µM								> 100 µM			
Cc1nc2ccccc2c(/C=C/c2ccc(Cl)cc2)c1C(=O)/C=C/c1ccccc1	3.68 µM		6.54 µM	3.04 µM	2.4 µM		6.5 µM	4.88 µM		1240 nM		2.24 µM	1.56 µM	1180 nM					1260 nM	884 nM
C/C=C(/C)C(=O)O[C@H]1[C@H](O)CC(c2ccc3c(c2O)C(O)=C2C(=O)C4(OC)C(O)=C(C(N)=O)C(=O)[C@H](CC(=O)c5ccccc5O)C4CC2[C@@]3(C)OC)O[C@@H]1C (stereo partly drawn)	2.48 µM and 0.341 µM		4.6 µM and 1.52 µM	0.226 µM and 0.0935 µM	2.34 µM	0.518 µM	0.557 µM and 1.76 µM	10.5 µM	2.13 µM and 1.34 µM											
CCCC(=O)[O-].N.N.N.N.N.[Co+3].[O-][Cl+3]([O-])([O-])[O-]	> 100 µM	> 100 µM	> 100 µM	> 100 µM	> 100 µM	> 100 µM	> 100 µM	> 100 µM	> 100 µM											
CCOC(=O)c1c(-c2cccc3ccccc23)c(C#N)c(=S)n(C2OC(COC(C)=O)C(OC(C)=O)C(OC(C)=O)C2OC(C)=O)c1C (stereo not drawn)	> 100 µM	> 100 µM	> 100 µM	> 100 µM	3.49 µM			> 100 µM	> 100 µM								> 100 µM			
CCN1CCC(O)(/C=C/c2ccc(C(C)C)cc2)C(C(=O)/C=C/c2ccc(C(C)C)cc2)C1 (stereo not drawn)	6.79 µM	19.4 µM	11.5 µM	4.87 µM	7.88 µM	5.74 µM		5.18 µM	> 40.5 µM								8.44 µM			
CC(=O)Nc1ccccc1NC1CC(C)N(c2ccccc2)N1C(C)=O (stereo not drawn)	> 10 µM	> 10 µM	> 10 µM	> 10 µM		> 10 µM	> 10 µM	> 10 µM	> 10 µM											
CCOC(=O)C(NC(=O)OC(C)(C)C)C(=O)OCC	> 100 µM	> 100 µM	> 100 µM	> 100 µM	> 100 µM	> 100 µM	> 100 µM	> 100 µM									> 100 µM			
NCCCNCCCCN1CC1		4.71 µM	> 44.5 µM	> 30.7 µM	> 100 µM	16.7 µM	> 21.3 µM		> 22.6 µM								> 20.7 µM			
COC(=O)C(NC(=O)c1ccccc1)C(c1ccc(Cl)cc1)P(=O)(OC)OC (stereo not drawn)	> 100 µM	> 100 µM	> 100 µM	> 100 µM	> 100 µM	> 100 µM	> 100 µM	> 100 µM	> 100 µM											
CC1=C(C)C(=O)C(C2=CC(=O)C=CC2=O)=C(C2=CC(=O)C=CC2=O)C1=O	> 100 µM	> 100 µM	> 100 µM	> 100 µM	> 100 µM	> 100 µM		44.8 µM	> 100 µM								> 100 µM			
Oc1ccc(Cl)cc1C1=NC(/N=C\c2ccccc2)=NC(c2ccccc2)C1 (stereo not drawn)	> 100 µM	> 100 µM	> 100 µM	> 100 µM	74.1 µM	> 100 µM		> 100 µM	> 100 µM								> 100 µM			
C=CCn1c(-c2ccc([N+](=O)[O-])cc2)csc1=N	> 100 µM	> 100 µM	> 100 µM	> 100 µM	> 100 µM	> 100 µM			> 100 µM								> 100 µM			
COC(=O)C1=C(C(=O)OC)SC2(S1)C(C(=O)OC)=C(C(=O)OC)Sc1c2ssc1=NC(C)(C)C	3.16 µM	3.05 µM	8.69 µM	3.91 µM	3.34 µM	3.36 µM		2.16 µM	3.15 µM								7.73 µM			
O=C1CSc2cc([N+](=O)[O-])ccc2N1	> 100 µM	> 100 µM	> 100 µM	> 100 µM		> 100 µM		> 100 µM	> 100 µM											
COc1ccc(N2C(=O)C3c4[nH]c5ccccc5c4C4CCCCC4C3C2=O)cc1 (stereo not drawn)	64.3 µM	> 100 µM	51.9 µM	> 100 µM	> 100 µM	37.7 µM	> 100 µM	36.9 µM	> 100 µM											
